Laboratory results: PubChem BioAssay (NCI)
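The compound was tested at five concentrations on cells cultured in 96-well plates, with a 48-hour exposure period. At the GI50, growth is halved. TGI is the concentration that stops growth completely.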

Legend:
Assay in all cases: growth of human tumour cells (NCI), 48 h
[1] = system: NCI-H226 lung
[2] = system: HCT-116 colon
[3] = system: HCT-15 colon
[4] = system: OVCAR-8 ovarian
[5] = system: MOLT-4 leukemia
[6] = system: RPMI-8226 leukemia
[7] = system: LOX IMVI melanoma
[8] = system: SF-295 CNS
[9] = system: TK-10 renal
[10] = system: OVCAR-3 ovarian

Compound: CCCOc1ccc(/C=C/c2cc(OC)c(OC)c(OC)c2)cc1
- TGI [1]: 2.54 µM
- TGI [2]: > 33.3 µM
- TGI [3]: 15.1 µM
- TGI [4]: 22.3 µM
- TGI [5]: 13.2 µM
- TGI [6]: 28.4 µM
- TGI [7]: > 50.5 µM
- TGI [8]: 1.06 µM
- TGI [9]: > 100 µM

Compound: O=C(O)CC(Cc1ccc2c(c1)OCO2)C(=O)O (stereo not drawn)
- TGI [1]: > 100 µM
- TGI [2]: > 100 µM
- TGI [10]: > 100 µM
- TGI [3]: > 100 µM
- TGI [4]: > 100 µM
- TGI [5]: > 100 µM
- TGI [6]: > 100 µM
- TGI [7]: > 100 µM
- TGI [8]: > 100 µM
- TGI [9]: > 100 µM

Compound: COc1cc2c(/C=C3/C(=O)Nc4ccccc43)c(Cl)n(Cc3ccccc3)c2cc1C
- GI50 [1]: > 100 µM
- TGI [1]: > 100 µM
- GI50 [2]: > 100 µM
- TGI [2]: > 100 µM
- GI50 [10]: > 100 µM
- TGI [10]: > 100 µM
- GI50 [3]: > 100 µM
- TGI [3]: > 100 µM
- GI50 [4]: > 100 µM
- TGI [4]: > 100 µM
- GI50 [5]: 6.05 µM
- TGI [5]: > 100 µM
- GI50 [6]: 21.1 µM
- TGI [6]: > 100 µM
- GI50 [7]: > 100 µM
- TGI [7]: > 100 µM
- GI50 [8]: > 100 µM
- TGI [8]: > 100 µM
- GI50 [9]: > 100 µM
- TGI [9]: > 100 µM

Compound: CC(=O)/C=C1/c2ccccc2N(C(C)=O)C1O (stereo not drawn)
- TGI [2]: > 100 µM
- TGI [10]: > 100 µM
- TGI [3]: > 100 µM
- TGI [4]: > 100 µM
- TGI [5]: > 100 µM
- TGI [6]: > 100 µM
- TGI [8]: > 100 µM

Compound: O=c1cc/c(=N\Nc2ccccc2)c(=O)/c1=N/Nc1ccccc1
- GI50 [1]: > 50 µM
- TGI [1]: > 50 µM
- GI50 [2]: > 50 µM
- TGI [2]: > 50 µM
- GI50 [10]: > 50 µM
- TGI [10]: > 50 µM
- GI50 [3]: > 50 µM
- TGI [3]: > 50 µM
- GI50 [4]: > 50 µM
- TGI [4]: > 50 µM
- GI50 [5]: > 50 µM
- TGI [5]: > 50 µM
- GI50 [7]: > 50 µM
- TGI [7]: > 50 µM
- GI50 [8]: > 50 µM
- TGI [8]: > 50 µM
- GI50 [9]: > 50 µM
- TGI [9]: > 50 µM

Compound: CN1C(c2ccccc2)CC(=Nc2ccccc2)CC1c1ccccc1 (stereo not drawn)
- TGI [1]: 25.6 µM
- TGI [2]: 16.4 µM
- TGI [10]: 24 µM
- TGI [3]: 29.9 µM
- TGI [4]: 20.6 µM
- TGI [5]: 28.7 µM
- TGI [6]: 13.7 µM
- TGI [7]: 16.8 µM
- TGI [8]: 31.1 µM
- TGI [9]: 36.9 µM

Compound: COC(=O)c1nc(-c2ccc(Cl)c(Cl)c2)nc2ccccc12
- TGI [1]: 78.1 µM
- TGI [2]: > 100 µM
- TGI [10]: > 100 µM
- TGI [3]: > 100 µM
- TGI [4]: > 100 µM
- TGI [5]: > 100 µM
- TGI [6]: > 100 µM
- TGI [7]: > 100 µM
- TGI [8]: > 31.1 µM
- TGI [9]: > 83.5 µM

Compound: c1ccc(-c2nc(Nc3ccc(-c4nc5ccccc5[nH]4)cc3)nc(N3CCOCC3)n2)cc1
- GI50 [1]: 2.4 µM
- TGI [1]: 4.58 µM
- GI50 [2]: 0.394 µM
- TGI [2]: 1.62 µM
- GI50 [10]: 1.52 µM
- TGI [10]: 2.98 µM
- GI50 [4]: 1.72 µM
- TGI [4]: 3.41 µM
- GI50 [5]: 1.33 µM
- TGI [5]: 3.53 µM
- GI50 [6]: 1.11 µM
- TGI [6]: 4.23 µM
- GI50 [8]: 1.25 µM
- TGI [8]: 2.84 µM
- GI50 [9]: 2.15 µM
- TGI [9]: 3.76 µM

Compound: COc1cc(C)cc2c1OC(c1ccccc1)CC2=O (stereo not drawn)
- GI50 [1]: > 100 µM
- TGI [1]: > 100 µM
- GI50 [2]: > 100 µM
- TGI [2]: > 100 µM
- GI50 [10]: > 100 µM
- TGI [10]: > 100 µM
- GI50 [3]: > 100 µM
- TGI [3]: > 100 µM
- GI50 [4]: > 100 µM
- TGI [4]: > 100 µM
- GI50 [5]: > 100 µM
- TGI [5]: > 100 µM
- GI50 [7]: > 100 µM
- TGI [7]: > 100 µM
- GI50 [8]: > 100 µM
- TGI [8]: > 100 µM
- GI50 [9]: > 100 µM
- TGI [9]: > 100 µM
